Source: patent publication US9593309B2, “Media for culturing, preserving, and administering regenerative cells” (InGeneron, Inc., priority 2012, dated 2017)

How the values were obtained:
[1] = system: Ad-MSCs (canine adipose SVF cells); test: Ad-MSC proliferation, nucleated cell counts (Syto13) of plated adipose SVF cells; assay type: cell-based; conditions: concentration not given
Method: Assays for cell proliferation, colony forming units (CFU), gene expression analyses, cell surface markers, and chondrogenic and osteogenic differentiation were performed. Cell growth and Colony Forming Units (CFU) were grown in monolayer on tissue culture grade plastic in alpha MEM, 20% FBS (v/v), pen/strep. Nucleated cell counts were performed by staining with Syto13 (Invitrogen) followed by hemacytometer counting under fluorescence microscopy. Gene expression analysis was performed by quantitative RT-PCR profiling, BioRad iQ. Flow Activated Cell Storing (FACS) analyses were performed at M.D. Anderson Cancer Center FACS Core Facilities, Houston, Tex. by GALLIOS Flow Cytometry Instruments (Beckman Coulter). […]
Media was changed at days 3 and 6. Nucleated cell counts were performed by Syto13 staining followed by hemacytometer counting under fluorescence microscopy (FIG. 1B).
Fresh canine adipose SVF cells were plated at equal nucleated cell density and grown for 7 days in culture on tissue culture plastic in the presence of complete growth media and the respective concentrations (v/v) of GAG formulation. Nucleated cell counts were performed by Syto13 staining followed by hemacytometer counting under fluorescence microscopy. […]

Sox2 = Sox2 mRNA level in cultured Ad-MSCs, normalized to β-Actin; assay type: cell-based, canine; conditions: 5% (v/v) formulation, 6 days culture, vs other GAG formulations
Method: Assays for cell proliferation, colony forming units (CFU), gene expression analyses, cell surface markers, and chondrogenic and osteogenic differentiation were performed. Cell growth and Colony Forming Units (CFU) were grown in monolayer on tissue culture grade plastic in alpha MEM, 20% FBS (v/v), pen/strep. Nucleated cell counts were performed by staining with Syto13 (Invitrogen) followed by hemacytometer counting under fluorescence microscopy. Gene expression analysis was performed by quantitative RT-PCR profiling, BioRad iQ. Flow Activated Cell Storing (FACS) analyses were performed at M.D. Anderson Cancer Center FACS Core Facilities, Houston, Tex. by GALLIOS Flow Cytometry Instruments (Beckman Coulter). For osteogenic and chondrogenic differentiation, cells were cultured in STEMPRO induction media (Invitrogen, Carlsbad, Calif.) for 14 days, fixed in 4% formalin, and stained with Alzarin red and Alcian Blue, respectively. Statistical analyses were performed by ANOVA.
Canine Ad-MSCs were grown for 6 days in culture in the presence of complete growth media and the respective 5% (v/v) GAG formulations. Magnification=100×. Sox2 levels, a marker of stem cell proliferation, were measured in total RNA samples and normalized to β-Actin mRNA. Here “GAG” represents poly-sulfated glycosaminoglycan (ADEQUAN).

hyaluronic acid [HA] was tested, and the “effect on cell proliferation when added to culture media” value [1] was “pro-mitotic, but to a lesser magnitude” and the Sox2 levels (Sox2) was “qualitatively similar, but of lesser magnitude”.
